Where two headings read alike, the source gives them in different places.
Columns and labels:
Format in all cases: in vivo
Bombyx mori L. = test: Toxicity test on 2nd-instar larvae of Bombyx mori L., leaf immersion feeding method; conditions: 1000 ppm, 24 hours
Description: (1) Toxicity Test on 2nd-Instar Larvae of Bombyx mori L.
Bombyx mori L. is an important economic insect sensitive to pesticides in an agricultural ecosystem, and is also one of the non-target organisms of environmental ecology listed in pesticide registration of China. The 2nd-instar larvae of Bombyx mori L. were used as test objects and tested by using a leaf immersion feeding method.
Operation process: Samples were weighed accurately, and respectively added with 200 μL of dimethyl sulfoxide to prepare 10 g/L mother liquor which was diluted into a concentration of 1000 ppm with an aqueous solution containing 0.05% of Tween-80 during the test. Young cotyledons of mulberries were collected, washed and air-dried, immersed in a liquid medicine, taken out after 5 seconds, naturally air-dryed, and then transferred into a clean vessel. About 35 2nd -instar larvae of Bombyx mori L. were put into the vessel and fed at a constant temperature of 25° C. Each concentration was repeated 3 times, and an aqueous solution containing 0.05% of Tween-80 was used as a control group. After being treated for 24 hours, a number of dead Bombyx mori L. was counted, and a mortality (%) was calculated according to a formula that mortality (%)=(number of live larvae in the control group −number of treated live larvae)/number of live larvae in the control group * 100%.

Plutella xylostella = test: whole plant or invertebrate; conditions: Plutella xylostella, read-out: Plutella xylostella Mortality (%) 500 ppm
Summary of the method: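 Cabbage leaf discs dipped 5 s in compound at 500 ppm (0.05% Tween-80 aqueous), air-dried, fed to about 35 2nd-instar larvae at 28° C., triplicate. Dead larvae counted after 24 h; mortality (%) corrected against Tween-80 control.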

Solenopsis invicta = test: whole plant or invertebrate; conditions: Solenopsis invicta, water test tube poison-feeding
Summary of the method: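 Fire ants fed compound by water test-tube poison-feeding at 100 ppm in aqueous 0.05% Tween-80/5% honey (from 10 g/L DMSO stock), kept at 25 °C. Live and dead ants counted at 24 and 72 h; mortality (%) calculated relative to live ants in the untreated control.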

Aphis craccivora = test: whole plant or invertebrate; conditions: Aphis craccivora, 24 h, read-out: Aphis craccivora Mortality (%) 500 ppm
Summary of the method: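 Wingless adults feeding on bean sprouts were dipped with the sprouts for 5 s in 500 ppm compound in aqueous 0.05% Tween-80, air-dried, then held at 23° C. Dead aphids counted after 24 h, triplicate, with 0.05% Tween-80 as control. Mortality (%) = (control live − treated live)/control live × 100.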

Spodoptera exigua = test: whole plant or invertebrate; conditions: Spodoptera exigua, 24 h, read-out: Spodoptera exigua Mortality (%) 500 ppm
Summary of the method: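 Cabbage leaf discs dipped 5 s in 500 ppm compound (0.05% Tween-80 aqueous), air-dried, fed to about 35 2nd-instar larvae at 28° C, three replicates. Deaths counted at 24 h; mortality corrected against Tween-80 control.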

Apis cernan = test: Toxicity test on adult worker bees of Apis cernan, small beaker method; conditions: 500 ppm, 48 hours
Description: (2) Toxicity Test on Adult Worker Bees of Apis cernan.
Adult worker bees of Apis cernan having the same size were selected for test. The worker bees were collected from beekeeping boxes in the daystart of the test day and tested by using a small beaker method.
Operation process: A small amount of absorbent cotton was put into a 5 mL small beaker, 5 mL of a test liquid medicine (a concentration of 500 ppm) was dropped into the absorbent cotton, and stirred gently to make the absorbent cotton completely wet but not leached obviously, then the small beaker was put into a 500 mL large beaker, then 15 worker bees were put into the large beaker, and finally the large beaker was sealed with gauze. After treatment, the large beaker was placed in a dark room of an artificial climate box. After taking the medicine for 48 hours, a number of live and dead worker bees were investigated.

[1] = 24 h, read-out: Solenopsis invicta Mortality (%) 100 ppm 24 h, 100 ppm, 24 h
[2] = 72 h, read-out: Solenopsis invicta Mortality (%) 100 ppm 72 h, 100 ppm, 72 h

Structure (SMILES) | Toxicity determination Bombyx mori L. Mortality (%) (Bombyx mori L.) | mortality at 500 ppm (Plutella xylostella) [%] | mortality at 100 ppm (Solenopsis invicta; [1]) [%] | mortality at 100 ppm (Solenopsis invicta; [2]) [%] | mortality at 500 ppm (Aphis craccivora) [%] | mortality at 500 ppm (Spodoptera exigua) [%] | Toxicity determination Apis cernan Mortality (%) (Apis cernan)
C=CC1(CCl)Nc2c([S+]([O-])C(F)(F)F)c(C#N)nn2-c2c(Cl)cc(C(F)(F)F)cc21 (centres unmarked) [Compound C13] | 12 | 100 | 32 | 100 | 100 | 100 | 10
C=CC1(CC(F)(F)F)Nc2c([S+]([O-])C(F)(F)F)c(C#N)nn2-c2c(Cl)cc(C(F)(F)F)cc21 (centres unmarked) [Compound C14] | 10 | 100 | 30 | 100 | 100 | 100 | 10
C=CC1(C(F)(F)F)Nc2c([S+]([O-])C(F)(F)F)c(C#N)nn2-c2c(Cl)cc(C(F)(F)F)cc21 (centres unmarked) [Compound C15] | 8 | 89 | 29 | 90 | 100 | 100 | 7
C=CC1(CCl)Nc2c([S+](C)[O-])c(C#N)nn2-c2c(Cl)cc(C(F)(F)F)cc21 (centres unmarked) [Compound C18] | 6 | 90 | 20 | 70 | 98 | 86 | 5
C=CC1(CC#N)Nc2c([S+]([O-])C(F)(F)F)c(C#N)nn2-c2c(Cl)cc(C(F)(F)F)cc21 (centres unmarked) [Compound C20] | 8 | 100 | 28 | 99 | 100 | 100 | 10
N#CCC1(CO)Nc2c([S+]([O-])C(F)(F)F)c(C#N)nn2-c2c(Cl)cc(C(F)(F)F)cc21 (centres unmarked) [Compound C24] | 11 | 100 | 36 | 100 | 100 | 100 | 10
CC[S+]([O-])c1c(C#N)nn2c1NC(CO)(CC#N)c1cc(C(F)(F)F)cc(Cl)c1-2 (centres unmarked) [Compound C25] | 3 | 92 | 25 | 71 | 86 | 97 | 0
C[S+]([O-])c1c(C#N)nn2c1NC(CO)(CC#N)c1cc(C(F)(F)F)cc(Cl)c1-2 (centres unmarked) [Compound C26] | 4 | 89 | 20 | 80 | 100 | 90 | 4
CN(C)CC1(CC#N)Nc2c([S+]([O-])C(F)(F)F)c(C#N)nn2-c2c(Cl)cc(C(F)(F)F)cc21 (centres unmarked) [Compound C29] | 0 | 100 | 30 | 100 | 100 | 93 | 4
N#CCC1(C(=O)O)Nc2c([S+]([O-])C(F)(F)F)c(C#N)nn2-c2c(Cl)cc(C(F)(F)F)cc21 (centres unmarked) [Compound C30] | 0 | 100 | 24 | 100 | 92 | 90 | 0
COC(=O)C1(CC#N)Nc2c([S+]([O-])C(F)(F)F)c(C#N)nn2-c2c(Cl)cc(C(F)(F)F)cc21 (centres unmarked) [Compound C31] | 3 | 100 | 34 | 100 | 100 | 100 | 8
N#CCC1(C(N)=O)Nc2c([S+]([O-])C(F)(F)F)c(C#N)nn2-c2c(Cl)cc(C(F)(F)F)cc21 (centres unmarked) [Compound C32] | 6 | 100 | 25 | 100 | 95 | 90 | 9
CNC(=O)C1(CC(=O)OC)Nc2c([S+]([O-])C(F)(F)F)c(C#N)nn2-c2c(Cl)cc(C(F)(F)F)cc21 (centres unmarked) [Compound C35] | 4 | 100 | 38 | 100 | 100 | 100 | 4
N#Cc1nn2c(c1[S+]([O-])C(F)(F)F)NC(CC(=O)O)(C(=O)O)c1cc(C(F)(F)F)cc(Cl)c1-2 (centres unmarked) [Compound C36] | 2 | 90 | 10 | 90 | 100 | 90 | 3
COC(=O)CC1(C(=O)OC)Nc2c([S+]([O-])C(F)(F)F)c(C#N)nn2-c2c(Cl)cc(C(F)(F)F)cc21 (centres unmarked) [Compound C37] | 6 | 100 | 20 | 100 | 100 | 100 | 8
N#Cc1nn2c(c1[S+]([O-])C(F)(F)F)NC(CC(N)=O)(C(N)=O)c1cc(C(F)(F)F)cc(Cl)c1-2 (centres unmarked) [Compound C38] | 4 | 100 | 25 | 90 | 100 | 90 | 0
COC(=O)CC1(C(=O)OC)c2cc(C(F)(F)F)cc(Cl)c2-n2nc(C#N)c([S+]([O-])C(F)(F)F)c2N1C(C)=O (centres unmarked) [Compound C40] | 4 | 100 | 28 | 90 | 100 | 95 | 4
CC(=O)c1nn2c(c1[S+](C)[O-])NC(CC#N)(C(=O)O)c1cc(C(F)(F)F)cc(Cl)c1-2 (centres unmarked) [Compound C43] | 0 | 86 | 18 | 80 | 95 | 89 | 4
CNC(=O)C1(CC#N)Nc2c([S+](C)[O-])c(C(C)=O)nn2-c2c(Cl)cc(C(F)(F)F)cc21 (centres unmarked) [Compound C45] | 6 | 93 | 25 | 71 | 86 | 97 | 3
CNC(=O)C1(CC(=O)OC)Nc2c([S+](C)[O-])c(C(C)=O)nn2-c2c(Cl)cc(C(F)(F)F)cc21 (centres unmarked) [Compound C46] | 5 | 89 | 21 | 80 | 90 | 91 | 3

From patent US11401271B2, “Fused heterocyclic compound, pyrazole-ring-containing fused heterocyclic compound, agricultural composition containing thereof, and method of using the composition” (SOUTH CHINA AGRICULTURAL UNIVERSITY, priority 2017, dated 2022)
